The text below walks through data of patent publication US20220008445A1, “METHODS, COMPOSITIONS, AND KITS FOR TREATING OCULAR DISEASES” (ELOXX PHARMACEUTICALS, priority 2018, published 2022).

Data set [1] deals with retina. Conditions: have been reported; cited from earlier work.
The test system of data set [2] is retina. Conditions: for tolerability in gross ophthalmological examination and ERG compared to gentamicin: in vivo. The procedure: Biocompatibility and pharmacokinetic/pharmacodynamic profiles were evaluated for the aminoglycosides NB30, NB54/Compound 37, NB84/ELX-03, NB122/ELX-01, NB124/ELX-02, NB127/ELX-04, NB118/ELX-05, and NB128/ELX-06 in patient-derived cell lines and rodent animal models.
NB122 was well-tolerated compared to gentamicin in gross ophthalmological examination and ERG when administered by intravitreal injection.

Data set [3] has as its system USH1F nonsense mutations R3X and R245X. In words: Cell-Free Read-through Assay. It counts as biochemical. The conditions noted are these: FIG. 5A-B. The procedure:
Cell-Free Read-through Assay. NB84 and NB127 were evaluated for their ability to induce read-through of the USH1F nonsense mutations R3X and R245X in a cell-free assay.

The test system of data set [4] is USH1 nonsense mutations. In words: In vitro cell-based read-through assay in HEK293 cells. Conditions: greater at higher concentrations, FIG. 6A-B. An excerpt:
In Vitro Cell-Based Assay. NB84 and NB127 were next tested in an in vitro assay using HEK293 cells to determine if similar read-through activity could be achieved in a cellular environment.

For data set [5], the system named is USH2A mutation R626X. In words: Plasmid-based dual-luciferase read-through assay in HeLa cells, USH2A. Conditions: for read-through of the USH2A mutation (in words): FIG. 7, FIG. 9; for dose-dependence of read-through induction, USH2A: FIG. 10. The data set is classed as cell-based. The procedure: (§1) An in vitro assay was then performed to determine if the same dose-dependent suppression could be achieved using other aminoglycosides. This in vitro assay utilized a plasmid-based, dual-luciferase approach. Short sequences that include Usher syndrome nonsense mutations were cloned into the linker region between Renilla and Firefly luciferase reporters, and plasmids were transiently transfected into HeLa cells to evaluate compound read-through. This model permits an early assessment of read-through potential against disease-specific mutations. Read-through activity was evaluated using USH2A and USH1F mutations.
(§2) NB122, NB124, NB84, NB127, NB118, NB128, NB124-MeS, and NB157 were evaluated for their ability to induce read-through on the USH2A mutation R626X and the USH1F PCDH15 mutation R3X.

In data set [6] the test system is USH1F PCDH15 mutation R3X. Nature of the data set: Plasmid-based dual-luciferase read-through assay in HeLa cells, USH1F. Conditions: for read-through of the USH1F mutation (in words): FIG. 8, FIG. 9; for dose-dependence of read-through induction, USH1F: FIG. 11. It counts as cell-based. The procedure:
as §1, §2

Data set [7] has as its system R213X nonsense mutation in human TP53. In words: Protein Based Read-through Assay in DMS114 cells. The data set is classed as cell-based. Conditions: Western blot and immunofluorescence. The procedure: Protein Based Read-through Assay. NB122, NB124, NB84, NB118, and NB128 were evaluated for their protein-based read-through potential in DMS114 cells, which harbor a native R213X nonsense mutation in human TP53 as depicted in the scheme shown in FIG. 12. […] A high-throughput immunofluorescence assay measuring p53 localized at the nucleus is shown in FIG. 15 with dose-dependence studies for NB84. Lastly, FIG. 16 provides full dose response curves for NB122, NB124, NB84, NB118, and NB128 with the error bars representing a standard deviation (SD).

The test system of data set [8] is USH1C nonsense mutation R155X. In words: Usher protein expression, USH1C nonsense mutation. It counts as cell-based. The conditions noted are these: FIG. 17. The procedure:
The ability of these compounds to induce protein expression of nonsense mutations associated with Usher syndrome was evaluated using USH1C nonsense mutations.

The subject of data set [9] is nonsense mutation R262X in the Oca2 gene. Nature of the data set: Read-through after intravitreal injection in albino mice (melanin production). It counts as in vivo, SJL/J mice. The conditions noted are these: for in vivo read-through as compared to gentamicin: injection to the posterior segment (back of eye); for melanin production in the eye: intravitreal injection, FIGS. 20-21. How it is done:
Read-through activity following intravitreal injection of aminoglycosides was evaluated in animal models.
Albino mice (SJL/J mice) harbor the nonsense mutation R262X in the Oca2 gene resulting in an absence of melanin production in melanocytes. This model provides an initial evaluation of compound availability to the back of the eye when administered by intravitreal injection—higher concentrations of melanin correspond to greater read-through activity.
NB122, NB124, NB124-MeS, NB84, NB118, NB127, NB128, and NB157 were evaluated for read-through activity following intravitreal injection into SJL/J mice. FIGS. 20-21 show intravitreal read-through for each compound relative to gentamicin.

Data set [10] deals with healthy New Zealand white rabbits. Nature of the data set: Single-dose intravitreal tolerability, ERG and histology. It counts as in vivo. Conditions: rabbit, in vivo. The procedure:
Biocompatibility and pharmacokinetic/pharmacodynamic profiles were then evaluated for intravitreal injection of NB118 versus gentamicin. Single-dose tolerability was screened in healthy New Zealand white rabbits and evaluated based on ERG and histology. Dark-adapted oscillatory potential and photopic b-wave amplitudes were measured pre- and nine-days post a single 300 μg or 600 μg injection of aminoglycoside as shown in FIG. 2.
Results were confirmed by a veterinary pathologist.

A short description of data set [11]: Intravitreal pharmacokinetic profile, retina exposure. It counts as in vivo, Dutch-Belted rabbits. The conditions noted are these: 100 μg intravitreal. The procedure:
Pharmacokinetic profiles of NB124 were evaluated using healthy Dutch-Belted rabbits. Rabbits were injected with 100 μg of NB124 and followed for 192 hours. […] Overall, the results support a favorable therapeutic index for intravitreal administration of any of NB124.

Consider `CN[C@@H]1[C@@H](O)[C@@H](O[C@@H]2[C@@H](O)[C@H](O[C@H]3O[C@H]([C@@H](C)O)[C@@H](O)[C@H](O)[C@H]3N)[C@@H](N)C[C@H]2N)OC[C@]1(C)O` [Compound G418, G418], for which, in data set [1], the reported retinal toxicities result is “dose-limiting retinal toxicities”.
As for `C[C@@H](O)C1O[C@H](O[C@@H]2C(N)C[C@@H](NC(=O)[C@@H](O)CCN)[C@@H](O)C2O[C@@H]2O[C@H](CN)[C@H](O)C2O)[C@@H](N)C(O)[C@@H]1O` (stereo partly drawn) [NB84], in data set [2], the “in vivo ocular tolerance, intravitreal doses” value (shortened to “in vivo ocular tolerance”) is reported as “up to 600 μg/mL”; the “tolerability in gross ophthalmological examination and ERG compared to gentamicin” value is given as “well-tolerated”. The “read-through as compared to G418 and gentamicin” value in data set [3] is “significant read-through”. The read-through in cells entry in data set [4] was “significant read-through”. For the same molecule, in data set [5], the “read-through of the USH2A mutation (in words)” value is on record as “significant read-through” and the “dose-dependence of read-through induction, USH2A” value (from here on “dose-dependence … USH2A”) is “dose-dependence”. In data set [6], the “read-through of the USH1F mutation (in words)” value is “significant read-through” and the “dose-dependence of read-through induction, USH1F” value (from here on “dose-dependence … USH1F”) is reported as “dose-dependence”. The “nonsense mutation read-through as measured by protein expression (full length p53)” value (from here on “nonsense mutation read-through”) in data set [7] is “dose-dependent”. In data set [8], the “protein expression versus gentamicin and vehicle control” value is “increased protein expression”. For the same molecule, in data set [9], the “in vivo read-through as compared to gentamicin” value is listed as “significant read-through” and the “melanin production in the eye” value is “dose-dependent increase”.
As to `CC(N)C1OC(OC2C(O)C(N)CC(N)C2OC2OC(CO)C(O)C(O)C2N)C(O)C1O` (stereo not drawn) [NB118], in [10], the “anatomic changes in retina, H&E stained sections” value is “did not produce adverse anatomic changes” and the “impact on ERG amplitudes or implicit times” value was “minimal to no impact”. In data set [2], the “in vivo ocular tolerance” value is reported as “up to 600 μg/mL”; the “tolerability in gross ophthalmological examination and ERG compared to gentamicin” value is recorded as “well-tolerated”. Besides, in [5], the “read-through of the USH2A mutation (in words)” value was “significant read-through” and the “dose-dependence … USH2A” value was “dose-dependence”. Further, in [6], the “read-through of the USH1F mutation (in words)” value is given as “significant read-through” and the “dose-dependence … USH1F” value is listed as “dose-dependence”. For the same molecule, the “nonsense mutation read-through” value in data set [7] was “dose-dependent”. In data set [9], the “in vivo read-through as compared to gentamicin” value is given as “significant read-through” and the “melanin production in the eye” value is “dose-dependent increase”.
`CC(N)C1OC(OC2C(O)C(NC(=O)C(O)CCN)CC(N)C2OC2OC(CO)C(O)C(O)C2N)C(O)C1O` (stereo not drawn) [NB122]: in [2], the “in vivo ocular tolerance” value was “up to 600 μg/mL”; the “tolerability in gross ophthalmological examination and ERG compared to gentamicin” value is reported as “well-tolerated”. For the same molecule, the “dose-dependence … USH2A” value in data set [5] is on record as “dose-dependence”. Further, the “dose-dependence … USH1F” value in [6] is reported as “dose-dependence”. In [6] (R3X), the R3X read-through rate was 2.7% and the “increase over native read-through” value stood at 2.5 fold. Moreover, in [7], the “nonsense mutation read-through” value is reported as “dose-dependent”. In addition, the “protein expression versus gentamicin and vehicle control” value in data set [8] is recorded as “increased protein expression”. In data set [9], the “in vivo read-through as compared to gentamicin” value is recorded as “significant read-through” and the “melanin production in the eye” value is reported as “dose-dependent increase”.
Consider `CC(N)C1OC(OC2C(O)C(NS(C)(=O)=O)CC(N)C2OC2OC(C(C)O)C(O)C(O)C2N)C(O)C1O` (stereo not drawn) [NB124-MeS], for which, in data set [2], the “tolerability in gross ophthalmological examination and ERG compared to gentamicin” value is “well-tolerated”. For the same molecule, the “read-through of the USH2A mutation (in words)” value in [5] is recorded as “significant read-through”. Moreover, in data set [6], the “read-through of the USH1F mutation (in words)” value was “significant read-through”. For the same molecule, in [9], the “in vivo read-through as compared to gentamicin” value is “significant read-through” and the “melanin production in the eye” value was “dose-dependent increase”.
Take `C[C@H](N)[C@H]1O[C@@H](O[C@@H]2[C@@H](O)[C@H](N)C[C@H](N)[C@H]2O[C@H]2O[C@H]([C@@H](C)O)[C@@H](O)[C@H](O)[C@H]2N)[C@H](O)[C@@H]1O` [NB124]: the “tolerability in gross ophthalmological examination and ERG compared to gentamicin” value in data set [2] was “well-tolerated”. Further, the “time for which retina exposure covers the compound's IC50” value in data set [11] is “over 48 hours”. In [11] (followed for 192 hours), the “time of peak retina exposure” value came to 3 h. In addition, the “dose-dependence … USH2A” value in data set [5] is given as “dose-dependence”. Besides, the “dose-dependence … USH1F” value in data set [6] is reported as “dose-dependence”. Moreover, the “nonsense mutation read-through” value in data set [7] is “dose-dependent”. Besides, the “protein expression versus gentamicin and vehicle control” value in data set [8] is recorded as “increased protein expression”. Further, in data set [9], the “in vivo read-through as compared to gentamicin” value is on record as “significant read-through” and the “melanin production in the eye” value was “dose-dependent increase”.
Take `CC(N)C1OC(OC2C(O)C(NC(=O)C(O)CCN)CC(N)C2OC2OC(C(C)O)C(O)C(O)C2N)C(O)C1O` (stereo not drawn) [NB127]: in data set [2], the “tolerability in gross ophthalmological examination and ERG compared to gentamicin” value is “well-tolerated”. For the same molecule, the “read-through as compared to G418 and gentamicin” value in data set [3] was “significant read-through”. Besides, in data set [4], the read-through in cells entry is listed as “significant read-through”. The “read-through of the USH2A mutation (in words)” value in [5] is listed as “significant read-through”. Besides, in data set [6], the “read-through of the USH1F mutation (in words)” value was “significant read-through”. Besides, in data set [8], the “protein expression versus gentamicin and vehicle control” value is “increased protein expression”. Further, in data set [9], the “in vivo read-through as compared to gentamicin” value was “significant read-through” and the “melanin production in the eye” value was “dose-dependent increase”.
For `CC(N)C1OC(OC2C(O)C(NC(=O)C(O)CCN)CC(N)C2OC2OC(C(C)O)C(O)C(O)C2N)C(O)C1O` (stereo not drawn) [NB128], the “tolerability in gross ophthalmological examination and ERG compared to gentamicin” value in [2] is “well-tolerated”. Also, in [5], the “read-through of the USH2A mutation (in words)” value is given as “significant read-through” and the “dose-dependence … USH2A” value is recorded as “dose-dependence”. Further, in data set [6], the “read-through of the USH1F mutation (in words)” value is on record as “significant read-through” and the “dose-dependence … USH1F” value is “dose-dependence”. Also, the “nonsense mutation read-through” value in data set [7] is “dose-dependent”. In data set [9], the “in vivo read-through as compared to gentamicin” value is reported as “significant read-through” and the “melanin production in the eye” value is “dose-dependent increase”.
For the molecule `CCCNC1CC(N)C(OC2OC(C(C)O)C(O)C(O)C2N)C(OC2OC(CN)C(O)C2O)C1O` (stereo not drawn) [NB147], the “tolerability in gross ophthalmological examination and ERG compared to gentamicin” value in data set [2] is recorded as “well-tolerated”. In data set [9], the “in vivo read-through as compared to gentamicin” value was “significant read-through”.
On to `C[C@H](N)[C@H]1O[C@@H](O[C@@H]2C(O)[C@H](N)CC(N)[C@H]2O[C@H]2OC([C@H](O)CO)[C@@H](O)[C@H](O)C2N)C(O)[C@H]1O` (stereo partly drawn) [NB157], for which, in [5], the “read-through of the USH2A mutation (in words)” value was “significant read-through”. In addition, the “read-through of the USH1F mutation (in words)” value in data set [6] was “significant read-through”. In [9], the “melanin production in the eye” value is “dose-dependent increase”.
